# Data: US11732007B2, “Therapeutic compounds and methods” (The Regents of the University of California, priority 2020, dated 2023)
# pIC50: −log10 of the molar value.
# Columns and labels:
# [1] = Preliminary pharmacokinetic study in mice; assay type: in vivo, Balb-C mice
# Description: (§1) Compound 25 was administered i.p. (30 mg/kg) to 5 Balb-C mice. Retrorbital bleeding was used to collect blood samples at times 30 min, 1 h, 2 h, 4 h, 8 h, and 24 h and the samples analyzed for compound 25 plasma concentration via extraction followed by LC/MS and compared to a standard calibration curve prepared with purified agent. Compound 25 was soluble in 10% DMSO, 40% PEG400, and 10% (2-hydroxypropyl)-Beta-cyclodextrin in PBS. Mice weight varied between 22 g and 26 g, each receiving approximately 200 μL (weight adjusted to administer 30 mg/Kg of compound 25) of formulated agent. The experiments were conducted at the University of California San Diego in vivo pharmacology core facility, according to a UCSD Institutional Animal Care and Use Committee (IACUC) approved protocol.
# [2] = molecular target: T1, MMP-9 (Homo sapiens, UniProt P14780); test: SensoLyte 520 fluorimetric selectivity assay, MMP-9; assay type: biochemical; conditions: agents tested at 25 nM or at 4 nM
# T1 construct: purchased AnaSpec AS-55576-1
# Description: (§2) FIG. 2. […] For each indicated enzyme, agents were tested at 25 nM or at 4 nM and percent inhibition was measured using the catalytic domains of the respective enzyme and the SensoLyte® 520 Fluorimetric Assay Kit (Anaspec).
# (§3) Enzymatic assays to profile the inhibitory effects of all the compounds on hMMP-12, and against a panel of 5 closely related MMPs (MMP-1, MMP-3, MMP-9, MMP-13, and MMP-14) were performed using the SensoLyte® 520 Fluorimetric Assay Kit (AnaSpec) for each MMPs. Assay kit for MMP-12 Cat. #AS-71157, MMP-1 Cat. #AS-71150, MMP-3 Cat. #AS-71152, MMP-9 Cat. #AS-71155, MMP-13 Cat. #AS-71156, and MMP-14 Cat. #AS-72025. The assay was performed according to their protocols. Briefly, 10 ng of each MMPs were incubated on a black flat-bottom 96-well plate (Cat. #9502867) at RT for 15 minutes in absence or in presence of different concentration of each compound in a total volume of 50 μL. After 15 minutes, 50 μL of each substrate solution were added. The reagents were mixed together by shaking the plate gently for 30 sec. Immediately after the fluorescence was measured using the VICTOR X5 microplate reader (PerkinElmer) every 3 min for 60 min. All the measurement were performed in duplicates. The IC50 values were calculated from dose-response curves using GraphPad Prism 7.
# [3] = Solubility in dosing formulation; assay type: physicochemical; conditions: 10% DMSO, 40% PEG400, 10% (2-hydroxypropyl)-Beta-cyclodextrin in PBS
# Description: as §1
# [4] = molecular target: T2, MMP-14 (Homo sapiens, UniProt P50281); test: SensoLyte 520 fluorimetric selectivity assay, MMP-14; assay type: biochemical; conditions: agents tested at 25 nM or at 4 nM
# T2 construct: purchased AnaSpec AS-72068
# Description: as §2, §3
# [5] = molecular target: T3, MMP-1 (Homo sapiens, UniProt P03956); test: SensoLyte 520 fluorimetric selectivity assay, MMP-1; assay type: biochemical; conditions: agents tested at 25 nM or at 4 nM
# T3 construct: purchased AnaSpec AS-55575-1
# T3 sequence (P03956 100-269 limits assumed): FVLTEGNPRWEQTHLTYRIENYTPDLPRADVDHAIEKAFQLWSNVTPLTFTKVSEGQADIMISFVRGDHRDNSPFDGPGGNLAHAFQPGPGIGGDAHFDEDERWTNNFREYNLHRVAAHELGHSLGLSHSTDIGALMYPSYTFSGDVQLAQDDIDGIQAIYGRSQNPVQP
# Description: as §2, §3
# [6] = molecular target: T4, MMP-3 (Homo sapiens, UniProt P08254); test: SensoLyte 520 fluorimetric selectivity assay, MMP-3; assay type: biochemical; conditions: agents tested at 25 nM or at 4 nM
# T4 construct: purchased AnaSpec 72006
# Description: as §2, §3
# [7] = molecular target: T5, hMMP-12 (Homo sapiens, UniProt P39900); test: SensoLyte 520 MMP-12 fluorimetric enzyme inhibition assay; assay type: biochemical; conditions: for pIC50: catalytic domain, tested side by side
# T5 construct: The catalytic domain (Gly106-Gly263) of human macrophage metalloelastase (hMMP-12); made in house; host or cells: E. coli BL21 Codon Plus (pET21 vector, NdeI/BamHI)
# [8] = tested on: murine model of elastase-induced emphysema; test: Murine model of elastase-induced emphysema, mean linear intercept analysis; assay type: in vivo, C57BL/6 mice; conditions: i.p. once daily for 7 days from day 2 after PPE, day 21
# Description: C57BL/6 mice were purchased from Jackson Laboratories (Bar Harbor, Me.) and maintained in a pathogen-free vivarium at room temperature with 12-hour light/dark cycles. All mice were 6-8 weeks and both male and female mice were used for the experiment. All animal-use and euthanasia protocols were approved by the UC Riverside Institutional Animal Care and Use Committee (IACUC).
# C57BL/6 mice were given a single intranasal instillation with 50 μl of saline or 0.9 U porcine pancreas elastase (Sigma-Aldrich, St. Louis, Mo.) diluted in phosphate buffered saline (IX PBS). Two days following the instillation, mice were treated with 200 μl of vehicle control, MMP-408, compound 25, or compound 26 via intraperitoneal injection. Mice were continually given treatment once a day for 7 consecutive days. Twenty-one days following the initial intranasal instillation, mice were sacrificed. Bronchoalveolar lavage fluid (BALF) was collected by making an incision in the trachea and inserting a cannula with syringe (BD Biosciences, CA), then washing with 1 mL of cold PBS three times. BALF was centrifuged at 1200 RPM for 5 minutes, then cell pellets were combined and resuspended in 200 μl of PBS to be used in cell counts and cell differential analysis. The lungs were isolated, slowly filled with 1 mL of 10% formalin then hung in formalin overnight for fixation. The following day, lungs were moved into 70% ethanol and stored at 4° C. until paraffin-embedding.
# Mouse lungs were fixed in formalin and paraffin-embedded, then sectioned and stained in hematoxylin and eosin by the University of California Irvine Department of Pathology Experimental Tissue Resource Core Facility. The lungs were imaged on a Revolve light microscope (La Jolla, Calif.) at 10× magnification. MLI measurements were calculated using an established indirect method on ImageJ software. Briefly, alveolar walls/intersections were counted along a line of known length, then length was divided by the number of intersections to calculate MLI. This process was repeated for a total of five MLI measurements per image, with there being four images per mouse lung. The average MLI measurement for each lung was calculated and statistically analyzed using GraphPad Prism software (San Diego, Calif.).
# [9] = molecular target: T6, MMP-13 (Homo sapiens, UniProt P45452); test: SensoLyte 520 fluorimetric selectivity assay, MMP-13; assay type: biochemical; conditions: agents tested at 25 nM or at 4 nM
# T6 construct: purchased AnaSpec AS-72257
# Description: as §2, §3
# [10] = 30 mg/kg intraperitoneally, mice
# T5 sequence (P39900 106-263): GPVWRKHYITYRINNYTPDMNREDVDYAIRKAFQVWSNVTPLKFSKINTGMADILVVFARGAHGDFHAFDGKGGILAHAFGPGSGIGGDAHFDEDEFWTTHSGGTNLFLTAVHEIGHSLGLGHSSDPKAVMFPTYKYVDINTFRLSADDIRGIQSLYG
# T4 sequence (P08254 100-272 limits assumed): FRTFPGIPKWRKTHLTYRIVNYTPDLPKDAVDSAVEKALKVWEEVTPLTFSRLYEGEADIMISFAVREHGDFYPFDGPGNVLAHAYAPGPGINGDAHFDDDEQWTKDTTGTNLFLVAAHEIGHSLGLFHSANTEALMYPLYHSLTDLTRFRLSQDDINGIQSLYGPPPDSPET
# T1 sequence (P14780 107-444 limits assumed): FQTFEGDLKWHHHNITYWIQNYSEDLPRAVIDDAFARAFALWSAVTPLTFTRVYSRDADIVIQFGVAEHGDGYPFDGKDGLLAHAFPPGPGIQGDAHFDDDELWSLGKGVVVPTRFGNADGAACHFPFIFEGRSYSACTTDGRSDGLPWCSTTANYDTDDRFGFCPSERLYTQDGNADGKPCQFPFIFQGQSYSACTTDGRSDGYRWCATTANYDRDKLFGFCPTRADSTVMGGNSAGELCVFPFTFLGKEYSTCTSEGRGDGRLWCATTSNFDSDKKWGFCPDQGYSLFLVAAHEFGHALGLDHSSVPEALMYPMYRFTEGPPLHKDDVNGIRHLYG
"peak plasma drug concentration [1, 10]","peak plasma drug concentration (molar) [1, 10]","peak plasma concentration relative to in vitro IC90 ([1]; mouse, in vivo)",inhibition of MMP-9 [2],solubility in formulation [3],inhibition of MMP-14 [4],inhibition of MMP-1 [5],inhibition of MMP-3 [6],mode of MMP-12 inhibition [7],pIC50 [7],inhibition of MMP-13 [9],Structure (SMILES),MLI measurements compared to saline (no PPE)-treated mice [8],emphysema-like pathology compared to PPE+vehicle-treated mice [8]
~400 ng/mL,~580 nM,> 20 times,did not display significant inhibition,soluble,did not display significant inhibition,did not display significant inhibition,appreciable inhibition,competitive inhibitors,~8.40,did not display significant inhibition,COc1ccc(CC[C@@H](NC(=O)[C@H](CCCc2ccccc2)NC(=O)CN2CCOCC2)C(=O)N[C@H](Cc2ccc(C)cc2)C(=O)NO)cc1 [Compound 25],no significant differences,significant decrease
–,–,–,did not display significant inhibition,–,did not display significant inhibition,did not display significant inhibition,appreciable inhibition,competitive inhibitors,~8.40,did not display significant inhibition,COc1ccc(CCC[C@H](NC(=O)CN2CCOCC2)C(=O)N[C@H](CCc2ccc(OC)cc2)C(=O)N[C@H](Cc2ccc(C)cc2)C(=O)NO)cc1 [Compound 26],no significant differences,significant decrease
–,–,–,–,–,–,–,appreciable inhibition,–,~8.60,–,"CNC(=O)[C@H](Cc1c[nH]c2ccccc12)NC(=O)[C@@H](CC(=O)NO)CC(C)C [GM6001, reference compound]",–,–
–,–,–,–,–,–,–,–,–,–,–,"COC(=O)Nc1ccc2oc3cc(S(=O)(=O)N[C@H](C(=O)O)C(C)C)ccc3c2c1 [MMP408, reference compound]",no significant differences,significant decrease
